According to article PMC7297381, “Potent, specific MEPicides for treatment of zoonotic staphylococci” (PLoS Pathogens, 2020):
In brackets after ≈: the same amount, converted by molar mass. Read-outs that look alike come from different tables or passages of the source.

Legend:
HepG2 cells = tested on: HepG2 cells; set-up: method as in PMID 28827774, PMID 30192536; conditions: previous work ref [42], [53]; read-out: IC50 against HepG2 cells; cited from earlier work
S. schleiferi DXR enzyme = S. schleiferi DXR enzyme (Staphylococcus schleiferi, UniProt A0ABF7SXB4); assay: S. schleiferi DXR enzyme activity and inhibition (NADPH oxidation at 340 nm); assay type: biochemical
Experimental: (§1) . The sequence was confirmed by Sanger sequencing and the plasmid was transformed into E. coli BL21(DE3) pLysS (Life Technologies). Gene expression was induced for 2 h with 1 mM isopropyl-β-D-thiogalactoside (IPTG) and cells were harvested by centrifugation at 4274 x g for 10 min at 4°C. The cell pellet was lysed by sonication in lysis buffer containing 25 mM Tris HCl (pH 7.5), 100 mM NaCl, 20 mM imidazole, 10% glycerol, 1 mM MgCl2, 1 mM dithiothreitol (DTT), 1 mg/mL lysozyme, 75 U benzonase and 1 Complete Mini EDTA-free protease inhibitor tablet (Roche Applied Science). The hexahistidine-tagged DXR protein was affinity purified from soluble lysate via nickel agarose beads (Gold Biotechnology). Bound protein was eluted in 300 mM imidazole, 25 mM Tris HCl (pH 7.5), 1 mM MgCl2 and 100 mM NaCl. Purified protein was dialyzed in buffer containing 10% glycerol without imidazole prior to analysis. The enzyme was frozen in liquid nitrogen and stored permanently at -80°C.
Oxidation of NADPH to NADP^+ as a result of substrate turnover was monitored at 340 nm in a POLARstar Omega microplate reader (BMG Labtech)[73]. […] Reactions were initiated by the addition of DOXP after 15 min incubation of the reaction mixture without DOXP at 37°C. Absorption at 340 nm was measured continuously for up to 45 min. For Km [DOXP] determination, DOXP concentrations between 0 and 2 mM were tested at 0.5 mM NADPH. The linear range of enzyme activity was determined by varying the DXR concentration at 1 mM DOXP and 1 mM NADPH. IC50 assays were performed using the standard reaction conditions with the respective amount of DXR inhibitor added to obtain the given final concentrations. Data points from at least three independent replicates were analyzed by nonlinear regression using GraphPad Prism software. Slopes of changing absorbance values were converted to (μM DOXP)(mg enzyme)^-1 s ^-1 using a NADPH standard curve (data not shown). For the determination of the inhibitory constant Ki [FSM] of DXR, enzyme activity over a range of DOXP substrate concentrations between 0 and 2 mM was measured for FSM between 0 mM to 4 mM. Data points from at least three independent replicates were analyzed as described above.

S. schleiferi [1] = assay: MIC by microtiter broth dilution, wild-type and FSM-resistant strains
Experimental: (§2) Minimum Inhibitory Concentration (MIC) assays were conducted by microtiter broth dilution in clear 96-well plates[78]. MEPicides were serially diluted in duplicate at concentrations ranging from 1.5 mM– 19.5 nM in 75 μL of LB broth. Bacteria cultured without drug were used as a positive control for growth. The plates were inoculated with 75 μL bacteria diluted to 1 x 10^5 CFU/mL in LB. Plates were incubated for 18–20 h while shaking at 200 RPM at 37°C. The plates were then visually inspected, and the MIC value was defined as the lowest concentration of MEPicide that prevented visual growth.

S. schleiferi [2] = assay: Growth inhibition assay of Staphylococcus species (OD600, 20 h); conditions: read-out: S. schleiferi IC50
Experimental: (§3) Overnight cultures were diluted 1:200 in LB media and grown at 37°C until the mid-logarithmic phase (OD600 = 0.5–0.8). Cultures were diluted in a 96-well plate to 1 x 10^5 in 150 μL LB media and treated with inhibitors at concentrations ranging from 2 nM to 100 μM. Bacteria were grown at 37°C for 20 h with cyclic shaking at 700 rpm in a FLUOstar Omega microplate reader (BMG Labtech). Growth was assessed over 20 h by measuring the OD600 at 20 min increments. The half-maximal inhibitory concentration (IC50) values were determined during logarithmic growth using GraphPad Prism software. All experiments were performed at least in triplicate and data reported represent the mean ± SEM.

S. aureus = assay: as above; conditions: for IC50: Staphylococcus aureus, read-out: S. aureus IC50
Experimental: as §3

S. pseudintermedius [3] = assay: as above; conditions: read-out: S. pseudintermedius IC50
Experimental: as §3

S. schleiferi [4] = assay: Minimum bactericidal (MBC) assay, CFU after 24 h; conditions: 1 x and 10 x IC50, 24 h, CFU/mL
Experimental: (§4) Overnight cultures were diluted 1:200 in LB media and grown at 37°C until reaching mid-logarithmic phase of growth. […] Cultures were serially diluted in 1 X Dulbecco’s Phosphate Buffered Saline (PBS; Gibco) and plated on LB agar. Colonies were enumerated after overnight growth at 37°C. Values reflect the mean and standard deviations of at least three independent experiments.
(§5) Growth in CFU/mL of S. schleiferi and S. pseudintermedius after 24 h treatment is plotted against the respective treatment. Cultures were treated at 1 x IC50 concentration and/or 10x IC50 concentration of the inhibitors. Shown are the mean values + SD from at least three independent experiments.

S. pseudintermedius [5] = assay: Minimum bactericidal (MBC) assay, CFU after 24 h; conditions: 1 x and 10 x IC50, 24 h, CFU/mL
Experimental: as §4, §5

MEP pathway [6] = assay: Targeted LC-MS/MS profiling of MEP pathway intermediates; conditions: FSM at 10x IC50, 2 h, vs untreated
Experimental: (§6) MEP pathway metabolites were compared between untreated (UNT) S. schleiferi (A) and S. pseudintermedius (B) and bacteria treated with FSM at 10x the respective IC50 values. After 2 h treatment, bacterial cells were harvested and the cell pellets analyzed by LC-MS/MS. […] P-values were determined using a Student’s t-test.
(§7) Overnight cultures of Staphylococcus spp. were diluted 1:200 in LB media and grown at 37°C until reaching mid-logarithmic phase. Cultures were then treated for 2 h with FSM at 10x their IC50 while shaking at 37°C. For normalization, the OD600 was determined after 2 h of treatment with the DXR inhibitors. Cells were pelleted by centrifugation for 5 min at 3000 x g at 4°C. The supernatants were removed and cells were washed twice with 1 x PBS (Gibco). The supernatants were removed and the pellets stored at -80°C until analysis. MEP intermediates were extracted from the samples using glass beads (212–300 u) and 600 μL chilled H2O: chloroform: methanol (3:5:12 v/v) spiked with PIPES (piperazine-N,N′-bis(2-ethanesulfonic acid) as internal standard. The cells were disrupted with the TissueLyser II instrument (Qiagen) using a microcentrifuge tube adaptor set pre-chilled for 2 min at 20 Hz. The samples were then centrifuged at 16,000 x g at 4°C for 10 min, the supernatants collected, and pellet extraction repeated once more. The supernatants were pooled and 300 μL chloroform and 450 μL of chilled water were added to the supernatants. The tubes were vortexed and centrifuged. The upper layer was transferred to a 2 mL tube PVDF filter (ThermoFisher, F2520-5) and centrifuged for 5 min at 4,000 x g at 4°C. The samples were transferred to new tubes and dried using a speed-vac. […]
(§8) For LC separation, Luna-NH2 column (3 μm, 150 x 2 mm, Phenomenex) was used flowing at 0.4 mL/min. […] The metabolites were detected using MRM transitions that were previously optimized using standards. […] For quantification, an external standard curve was prepared using a series of standard samples containing different concentrations of metabolites and a fixed concentration of the internal standard. […]

Serratia marcescens = assay: Growth inhibition assay for Gram-negative bacteria; assay type: cell-based; conditions: strain 137.01, mean ± SD
Salmonella typhimurium = assay: Growth inhibition assay for Gram-negative bacteria; assay type: cell-based; conditions: Salmonella enterica, strain 04-018-0254, mean ± SD
S. pseudintermedius [7] = assay: MIC by microtiter broth dilution, wild-type and FSM-resistant strains
Experimental: as §2

Shigella sonnei = assay: microbe, parasite or virus in culture; assay type: cell-based; conditions: mean ± SD
Klebsiella pneumoniae = assay: Growth inhibition assay for Gram-negative bacteria; assay type: cell-based; conditions: Klebsiella pneumoniae, ATCC43816; ATCC 43816; mean ± SD
Escherichia coli = assay: microbe, parasite or virus in culture; assay type: cell-based; conditions: Escherichia coli; BW25113; mean ± SD
[8] = tested on: Burkholderia thailandensis; assay: microbe, parasite or virus in culture; assay type: cell-based; conditions: read-out: Burkholderia thailandensis IC50
MEP pathway [9] = assay: Targeted LC-MS/MS profiling of MEP pathway intermediates; conditions: FSM at 10x IC50, 2 h, vs untreated; remark: listed apart in the source
Experimental: as §6, §7, §8

[10] = substrate: CC(=O)[C@@H](O)[C@H](O)COP(=O)(O)O; assay: S. schleiferi DXR enzyme activity and inhibition (NADPH oxidation at 340 nm); assay type: biochemical; conditions: other: 0.5 mM NADPH; pH 7.5; 37.0 °C
Experimental: as §1, with “Bound protein was eluted in 300 mM imidazole, 25 mM Tris HCl (pH 7.5), 1 mM MgCl2 and 100 mM NaCl. Purified protein was dialyzed in buffer containing 10% glycerol without imidazole prior to analysis. The enzyme was frozen in liquid nitrogen and stored permanently at -80°C.” left out
Oxidation of NADPH to NADP^+ as a result of substrate turnover was monitored at 340 nm in a POLARstar Omega microplate reader (BMG Labtech)[73]. […] Absorption at 340 nm was measured continuously for up to 45 min. […] The linear range of enzyme activity was determined by varying the DXR concentration at 1 mM DOXP and 1 mM NADPH. […] Data points from at least three independent replicates were analyzed by nonlinear regression using GraphPad Prism software. Slopes of changing absorbance values were converted to (μM DOXP)(mg enzyme)^-1 s ^-1 using a NADPH standard curve (data not shown). […] Data points from at least three independent replicates were analyzed as described above.

[11] = purified recombinant enzyme, mean ± SEM, read-out: S. schleiferi DXR enzyme IC50

CC(C)(C)C(=O)OCOP(=O)(/C=C/CN(O)C=O)OCOC(=O)C(C)(C)C [Compound 4]
IC50 (HepG2 cells): > 50000 nM
inhibition of purified recombinant S. schleiferi DXR in vitro (S. schleiferi DXR enzyme; prodrug, uncleaved): poorly inhibit
IC50 (S. schleiferi DXR enzyme; [11]): 12600 ± 1980 nM
sensitivity of FSM^R glpT mutant S. schleiferi strains (MIC fold change vs WT) (S. schleiferi [1]; strains 3408, 4494, 7376, 8400): remain sensitive
IC50 (S. schleiferi [2]): 30 nM
IC50 (S. aureus): > 90000 nM
IC50 (S. pseudintermedius [3]): 210 ± 40 nM

CC(=O)N(O)CCCP(=O)(O)O [FR-900098]
mechanism-of-action on viable cells (S. schleiferi [4]): bacteriostatic
mechanism-of-action on viable cells (S. pseudintermedius [5]): bacteriostatic
IC50 (S. schleiferi DXR enzyme): 1000 ± 180 nM
IC50 (S. schleiferi [2]): 41100 ± 6650 nM
inhibition of S. aureus growth (S. aureus): neither FSM nor FR-900098 inhibit S. aureus growth
IC50 (S. aureus): > 100000 nM
IC50 (S. pseudintermedius [3]): 34100 ± 6540 nM

O=CN(O)CCCP(=O)(O)O [FSM, fosmidomycin]
increase of intracellular DOXP level (MEP pathway [6]): 23.8 fold
reduction of intracellular CDP-ME level (MEP pathway [6]): 5.5 fold
reduction of intracellular MEcPP level (MEP pathway [6]): 4.5 fold
IC50 (Serratia marcescens): 390 ± 20 nM
mechanism-of-action on viable cells (S. schleiferi [4]): bacteriostatic
IC50 (Salmonella typhimurium): 230 ± 30 nM
mechanism-of-action on viable cells (S. pseudintermedius [5]): bacteriostatic
Ki (S. schleiferi DXR enzyme; competitive with respect to the DOXP substrate): 290 ± 22 nM
IC50 (S. schleiferi DXR enzyme; [11]): 670 ± 60 nM
mode of DXR inhibition (S. schleiferi DXR enzyme; with respect to the DOXP substrate): competitive
MIC (S. schleiferi [1]; read-out: FSM MIC, Parental S. schleiferi): 19.8 µM (≈ 3.63 µg/mL)
MIC (S. schleiferi [1]; read-out: FSM MIC, strain SSCH1903, GlpT G99X): 719 µM (≈ 132 µg/mL)
MIC (S. schleiferi [1]; read-out: FSM MIC, strain SSCH3408, GlpT A267E): 500 µM (≈ 91.6 µg/mL)
MIC (S. schleiferi [1]; read-out: FSM MIC, strain SSCH3612, GlpT G99V): 688 µM (≈ 126 µg/mL)
MIC (S. schleiferi [1]; read-out: FSM MIC, strain SSCH3624 (second line), GlpT A309S): 562 µM (≈ 103 µg/mL)
MIC (S. schleiferi [1]; read-out: FSM MIC, strain SSCH3624, GlpT G99V): 688 µM (≈ 126 µg/mL)
MIC (S. schleiferi [1]; read-out: FSM MIC, strain SSCH3717, no GlpT change): > 1500 µM
MIC (S. schleiferi [1]; read-out: FSM MIC, strain SSCH4455, GlpT G298X): > 1500 µM
MIC (S. schleiferi [1]; read-out: FSM MIC, strain SSCH4494, GlpT G99X): 750 µM (≈ 137 µg/mL)
MIC (S. schleiferi [1]; read-out: FSM MIC, strain SSCH7376, GlpT W148C): 438 µM (≈ 80.1 µg/mL)
MIC (S. schleiferi [1]; read-out: FSM MIC, strain SSCH8400, GlpT W161L): 469 µM (≈ 85.8 µg/mL)
MIC (S. schleiferi [1]; read-out: FSM MIC, strain SSCH8586, GlpT G99E): > 1500 µM
MIC (S. schleiferi [1]; read-out: FSM MIC, strain SSCH8774, GlpT Q379P): > 1500 µM
MIC (S. pseudintermedius [7]; read-out: FSM MIC, Parental S. pseudintermedius): 25.9 µM (≈ 4.74 µg/mL)
MIC (S. pseudintermedius [7]; read-out: FSM MIC, strain SPSE0643, GlpT W301X): 1120 µM (≈ 206 µg/mL)
MIC (S. pseudintermedius [7]; read-out: FSM MIC, strain SPSE1933, GlpT G99E): 875 µM (≈ 160 µg/mL)
MIC (S. pseudintermedius [7]; read-out: FSM MIC, strain SPSE2052, GlpT D88Y): 1120 µM (≈ 206 µg/mL)
MIC (S. pseudintermedius [7]; read-out: FSM MIC, strain SPSE2227, GlpT G135D): 1120 µM (≈ 206 µg/mL)
MIC (S. pseudintermedius [7]; read-out: FSM MIC, strain SPSE2648, GlpT G99E): 1000 µM (≈ 183 µg/mL)
MIC (S. pseudintermedius [7]; read-out: FSM MIC, strain SPSE5869, GlpT G135V): 938 µM (≈ 172 µg/mL)
MIC (S. pseudintermedius [7]; read-out: FSM MIC, strain SPSE6794, GlpT G99E): 1250 µM (≈ 229 µg/mL)
MIC (S. pseudintermedius [7]; read-out: FSM MIC, strain SPSE6909, GlpT G404D): 688 µM (≈ 126 µg/mL)
MIC (S. pseudintermedius [7]; read-out: FSM MIC, strain SPSE7104, GlpT G99E): 1250 µM (≈ 229 µg/mL)
MIC (S. pseudintermedius [7]; read-out: FSM MIC, strain SPSE7724, GlpT G400C): 1120 µM (≈ 206 µg/mL)
MIC (S. pseudintermedius [7]; read-out: FSM MIC, strain SPSE8628, no GlpT change): 1060 µM (≈ 195 µg/mL)
MIC (S. pseudintermedius [7]; read-out: FSM MIC, strain SPSE9765, no GlpT change): 1250 µM (≈ 229 µg/mL)
IC50 (Shigella sonnei): 1160 ± 690 nM
IC50 (Klebsiella pneumoniae): 810 ± 560 nM
IC50 (S. schleiferi [2]): 780 ± 130 nM
IC50 (Escherichia coli): 290 ± 80 nM
IC50 [8]: > 100000 nM
inhibition of S. aureus growth (S. aureus): neither FSM nor FR-900098 inhibit S. aureus growth
IC50 (S. aureus): > 100000 nM
increase of intracellular DOXP level (MEP pathway [9]): 34.8 fold
reduction of intracellular CDP-ME level (MEP pathway [9]): 2.6 fold
reduction of intracellular MEcPP level (MEP pathway [9]): 2.4 fold
IC50 (S. pseudintermedius [3]): 310 ± 40 nM

B1: S. schleiferi DXR enzyme (Staphylococcus schleiferi) (protein)
chain: MKNIAILGASGSIGQQAIDVIARHPESFNLISFTVGKNIEFAIEVIEKFKPEIVSVQDEADVERLKPYHSNIVSGRQGLIDVSTYEKNDLVLNALLGSVGLEPTMKAIEAGKNIALANKETLVVAGKLVMTHAKRYGVDILPVDSEHAAIFQCLNGEDMHKIKNVTITASGGSFRELTREQLEHVTVGDALNHPNWSMGNKITIDSATMMNKGFEVIEAKWLFDLKIDQIKTILHKESIIHSLVEFVDTSVMAQLGTPDMRMPIQYAFTYPERIEHRAPSLDLVQVAQLHFQEMDLDRYRCLKFAYDALRIGGSMPVVLNAVNEVAVAKFLNHEITFLEIEHMIEREMSAHEVIPDPSLEEILEIDHYYKTKSYEV
Km [10]: 520 ± 80 µM
